# According to patent US20130189320A1, “METHOD OF PREPARING A CONTROLLED RELEASE PARTICLE OF SOY ISOFLAVONE WITH BIODEGRADABLE POLYMER USING A SUPERCRITICAL FLUID EXTRACTION OF EMULSION (SFEE) PROCESS” (Nano and Advanced Materials Institute Limited, priority 2012, published 2013):
# How the values were obtained:
# [1] = particle morphology and size under scanning electron microscope (SEM); format: physicochemical
# From the text: It appears from the SEM images that the particle of genistein with PLGA has a nearly spherical shape and an average size of less than 1 μm. In comparison, the raw genistein is rectangular rod-shaped and the width (i.e., the shortest side of the rectangular rod-shaped raw genistein) is about 10 μm. PLGA matrix can protect genistein from degradation in the gastrointestinal tract and also from first-pass metabolism in the liver. Meanwhile, the nearly spherical shape of the genistein particle with the size less than 1 μm has a larger surface area to favor the interaction between the particle and the target cell in order to increase the chance of localizing on the target cell and delivering the genistein encapsulated in the particle in a controlled release manner.
# [2] = in vitro drug release study, aqueous medium containing 1% Tween 80; format: physicochemical; details: 24-hour period, FIG. 3
# From the text: In the drug release study, an aqueous medium containing 1% Tween 80 is used to re-suspend the genistein-containing PLGA particles or the raw genistein. The cumulative release percentage of the encapsulated genistein from the PLGA coated particles and that of the raw genistein without PLGA for a 24-hour period is shown in FIG. 3. […] That may be due to the presence of free and weakly bound drug on the surface of particulate carriers. […] In FIG. 3, the encapsulated genistein from the PLGA coated particles has a cumulative release percentage of below 20% within the first 24 hours while the raw genistein has over 40% of release over the 24-hour period. From this in vitro study, it could be said that the extended release profile of genistein-containing PLGA particles can increase the chance of genistein to be utilized in human body, which further leads to an improved bioavailability. The slower the release rate is, more available active ingredients are released to a specific site of action.
smiles,measurement,setting,value
"O=c1c(-c2ccc(O)cc2)coc2cc(O)cc(O)c12 [raw genistein, genistein]",width (shortest side of rectangular rod-shaped particle),[1],about 10 μm
same,cumulative release percentage of genistein,[2],over 40%
